Test results from the supplement of paper PMC5321775.
± gives the standard deviation of the averaged measurements or the uncertainty stated by the source.

Key:
[1] = system: Caenorhabditis briggsae AF16; assay: mean adult lifespan of treated plate (days); higher = longer lifespan; settings: exposure: chronic from day 1 of adulthood
Description: (§1)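 Dose-response lifespan assays in three C. briggsae strains (AF16, HK104, JU1348), run per plate (35-40 animals) on NGM with live OP50-1 and 51 uM FUdR at 20 C. Compound was added to the plate surface and worms were exposed from the first day of adulthood.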

[2] = system: Caenorhabditis briggsae HK104; assay: as above; settings: exposure: chronic from day 1 of adulthood
Description: as §1

[3] = system: Caenorhabditis briggsae JU1348; assay: as above; settings: exposure: chronic from day 1 of adulthood
Description: as §1

[4] = system: Caenorhabditis briggsae AF16; assay: mean adult lifespan of treated cohort (days); higher = longer lifespan; settings: exposure: chronic from day 1 of adulthood, single dose per compound (concentration not stated in sheet)
Description: (§2)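 Caenorhabditis lifespan assay (CITP). Synchronised hermaphrodites were moved on the first day of adulthood onto 35 mm NGM plates with live E. coli OP50-1 and 51 uM FUdR, with the compound spread on the plate. Worms were kept at 20 C and scored for survival.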

[5] = system: Caenorhabditis briggsae HK104; assay: as above; settings: exposure: chronic from day 1 of adulthood, single dose per compound (concentration not stated in sheet)
Description: as §2

[6] = system: Caenorhabditis briggsae JU1348; assay: as above; settings: exposure: chronic from day 1 of adulthood, single dose per compound (concentration not stated in sheet)
Description: as §2

[7] = system: Caenorhabditis elegans JU775; assay: as above; settings: exposure: chronic from day 1 of adulthood, single dose per compound (concentration not stated in sheet)
Description: as §2

[8] = system: Caenorhabditis elegans MY16; assay: as above; settings: exposure: chronic from day 1 of adulthood, single dose per compound (concentration not stated in sheet)
Description: as §2

[9] = system: Caenorhabditis elegans N2; assay: as above; settings: exposure: chronic from day 1 of adulthood, single dose per compound (concentration not stated in sheet)
Description: as §2

[10] = system: Caenorhabditis briggsae AF16; assay: Kaplan-Meier median lifespan of treated plate (days); higher = longer lifespan; settings: exposure: chronic from day 1 of adulthood
Description: as §1

[11] = system: Caenorhabditis briggsae HK104; assay: as above; settings: exposure: chronic from day 1 of adulthood
Description: as §1

[12] = system: Caenorhabditis briggsae JU1348; assay: as above; settings: exposure: chronic from day 1 of adulthood
Description: as §1

[13] = system: Caenorhabditis briggsae AF16; assay: Kaplan-Meier median lifespan of treated cohort (days); higher = longer lifespan; settings: exposure: chronic from day 1 of adulthood, single dose per compound (concentration not stated in sheet)
Description: as §2

[14] = system: Caenorhabditis briggsae HK104; assay: as above; settings: exposure: chronic from day 1 of adulthood, single dose per compound (concentration not stated in sheet)
Description: as §2

[15] = system: Caenorhabditis briggsae JU1348; assay: as above; settings: exposure: chronic from day 1 of adulthood, single dose per compound (concentration not stated in sheet)
Description: as §2

[16] = system: Caenorhabditis elegans JU775; assay: as above; settings: exposure: chronic from day 1 of adulthood, single dose per compound (concentration not stated in sheet)
Description: as §2

[17] = system: Caenorhabditis elegans MY16; assay: as above; settings: exposure: chronic from day 1 of adulthood, single dose per compound (concentration not stated in sheet)
Description: as §2

[18] = system: Caenorhabditis elegans N2; assay: as above; settings: exposure: chronic from day 1 of adulthood, single dose per compound (concentration not stated in sheet)
Description: as §2

CCCOC(=O)c1cc(O)c(O)c(O)c1 [propyl gallate]
mean adult lifespan of treated plate ([1]; 20 µM): 26.6 ± 1.5 | mean adult lifespan of treated plate ([1]; 100 µM): 25 ± 1.5 | mean adult lifespan of treated plate ([1]; 200 µM): 27.2 ± 1.1 | mean adult lifespan of treated plate ([1]; 400 µM): 25.2 ± 1.4 | mean adult lifespan of treated plate ([1]; 4000 µM): 18 ± 1.1 | mean adult lifespan of treated plate ([2]; 20 µM): 33.5 ± 1.6 | mean adult lifespan of treated plate ([2]; 100 µM): 35 ± 1.6 | mean adult lifespan of treated plate ([2]; 200 µM): 33.9 ± 1.3 | mean adult lifespan of treated plate ([2]; 400 µM): 35.1 ± 1.4 | mean adult lifespan of treated plate ([2]; 4000 µM): 21.9 ± 1.4 | mean adult lifespan of treated plate ([3]; 20 µM): 23.8 ± 1.1 | mean adult lifespan of treated plate ([3]; 100 µM): 26 ± 1.4 | mean adult lifespan of treated plate ([3]; 200 µM): 22.8 ± 1.1 | mean adult lifespan of treated plate ([3]; 400 µM): 24.7 ± 1.2 | mean adult lifespan of treated plate ([3]; 4000 µM): 19.5 ± 0.94 | mean adult lifespan of treated cohort [4]: 24.8 ± 0.89 | mean adult lifespan of treated cohort [5]: 33.4 ± 1 | mean adult lifespan of treated cohort [6]: 24.5 ± 0.75 | mean adult lifespan of treated cohort [7]: 21.5 ± 0.74 | mean adult lifespan of treated cohort [8]: 18.3 ± 0.57 | mean adult lifespan of treated cohort [9]: 19 ± 0.4 | Kaplan-Meier median lifespan ([10]; 20 µM): 26.4 ± 2.5 | Kaplan-Meier median lifespan ([10]; 100 µM): 26.6 ± 2.9 | Kaplan-Meier median lifespan ([10]; 200 µM): 28.3 ± 0.58 | Kaplan-Meier median lifespan ([10]; 400 µM): 26.6 ± 2.4 | Kaplan-Meier median lifespan ([10]; 4000 µM): 17.6 ± 4.5 | Kaplan-Meier median lifespan ([11]; 20 µM): 35.4 ± 5.3 | Kaplan-Meier median lifespan ([11]; 100 µM): 36.8 ± 3.5 | Kaplan-Meier median lifespan ([11]; 200 µM): 35 | Kaplan-Meier median lifespan ([11]; 400 µM): 35.5 ± 3.6 | Kaplan-Meier median lifespan ([11]; 4000 µM): 22.2 ± 6.4 | Kaplan-Meier median lifespan ([12]; 20 µM): 24.6 ± 4.2 | Kaplan-Meier median lifespan ([12]; 100 µM): 27.3 ± 4.3 | Kaplan-Meier median lifespan ([12]; 200 µM): 21 | Kaplan-Meier median lifespan ([12]; 400 µM): 24.1 ± 4.8 | Kaplan-Meier median lifespan ([12]; 4000 µM): 19.4 ± 2.1 | Kaplan-Meier median lifespan [13]: 24.7 ± 2 | Kaplan-Meier median lifespan [14]: 35.5 ± 3 | Kaplan-Meier median lifespan [15]: 24.7 ± 4 | Kaplan-Meier median lifespan [16]: 22.3 ± 2 | Kaplan-Meier median lifespan [17]: 18.3 ± 3.9 | Kaplan-Meier median lifespan [18]: 18.3 ± 0.82

Oc1ccc(/C=C/c2cc(O)cc(O)c2)cc1 [resveratrol]
mean adult lifespan of treated plate ([1]; 10 µM): 26.1 ± 1.4 | mean adult lifespan of treated plate ([1]; 50 µM): 26.9 ± 1.2 | mean adult lifespan of treated plate ([1]; 200 µM): 26.9 ± 1.6 | mean adult lifespan of treated plate ([1]; 1000 µM): 27.6 ± 1.3 | mean adult lifespan of treated plate ([2]; 10 µM): 35.9 ± 1.3 | mean adult lifespan of treated plate ([2]; 50 µM): 33 ± 1.3 | mean adult lifespan of treated plate ([2]; 200 µM): 35.5 ± 1.5 | mean adult lifespan of treated plate ([2]; 1000 µM): 34.7 ± 1.3 | mean adult lifespan of treated plate ([3]; 10 µM): 25.9 ± 1.5 | mean adult lifespan of treated plate ([3]; 50 µM): 25.7 ± 1.1 | mean adult lifespan of treated plate ([3]; 200 µM): 22.9 ± 1.1 | mean adult lifespan of treated plate ([3]; 1000 µM): 23.6 ± 1 | mean adult lifespan of treated cohort [4]: 24.6 ± 0.91 | mean adult lifespan of treated cohort [5]: 33.5 ± 1 | mean adult lifespan of treated cohort [6]: 25.5 ± 0.79 | mean adult lifespan of treated cohort [7]: 22.9 ± 0.69 | mean adult lifespan of treated cohort [8]: 18.3 ± 0.59 | mean adult lifespan of treated cohort [9]: 19.2 ± 0.46 | Kaplan-Meier median lifespan ([10]; 10 µM): 26.1 ± 1.4 | Kaplan-Meier median lifespan ([10]; 50 µM): 27.8 ± 2.7 | Kaplan-Meier median lifespan ([10]; 200 µM): 26.3 ± 1.8 | Kaplan-Meier median lifespan ([10]; 1000 µM): 28.1 ± 2.2 | Kaplan-Meier median lifespan ([11]; 10 µM): 36.8 ± 3.5 | Kaplan-Meier median lifespan ([11]; 50 µM): 36.2 ± 3.3 | Kaplan-Meier median lifespan ([11]; 200 µM): 36.9 ± 3 | Kaplan-Meier median lifespan ([11]; 1000 µM): 35.6 ± 3.6 | Kaplan-Meier median lifespan ([12]; 10 µM): 25.7 ± 4.7 | Kaplan-Meier median lifespan ([12]; 50 µM): 25.7 ± 4.7 | Kaplan-Meier median lifespan ([12]; 200 µM): 23.2 ± 3.4 | Kaplan-Meier median lifespan ([12]; 1000 µM): 22.6 ± 2.6 | Kaplan-Meier median lifespan [13]: 24.2 ± 1.5 | Kaplan-Meier median lifespan [14]: 35.8 ± 3.4 | Kaplan-Meier median lifespan [15]: 25.5 ± 1.6 | Kaplan-Meier median lifespan [16]: 24.2 ± 1.7 | Kaplan-Meier median lifespan [17]: 18.3 ± 1.5 | Kaplan-Meier median lifespan [18]: 19.2 ± 1.2
